The values below come from ChEMBL document CHEMBL5346923, “Novel pyridinium cationic pleuromutilin analogues overcoming bacterial multidrug resistance” (Eur J Med Chem, 2023).

As a reminder, the MIC is the smallest concentration in the dilution series that meets the test's criterion for growth inhibition.

Holding throughout (assay type): functional
Experiment [1] relates to Staphylococcus aureus. The experiment is described as follows: Antibacterial activity against Staphylococcus aureus ATCC 29213 assessed as inhibition of bacterial growth measured after 24 hrs by MH broth based assay.
In the next experiment the test system is Enterococcus. The experiment is described as follows: Antibacterial activity against vancomycin-resistant Enterococcus ATCC 700221 assessed as inhibition of bacterial growth measured after 24 hrs by MH broth based assay.
Experiment [2] concerns Staphylococcus epidermidis. The experiment is described as follows: Antibacterial activity against methicillin-resistant Staphylococcus epidermidis ATCC 51625 assessed as inhibition of bacterial growth measured after 24 hrs by MH broth based assay.
The next experiment has as its system Klebsiella pneumoniae. The experiment is described as follows: Antibacterial activity against Klebsiella pneumonia CMCC (B) 46117 assessed as inhibition of bacterial growth measured after 24 hrs by MH broth based assay.
Experiment [3] deals with Staphylococcus aureus. The experiment is described as follows: Antibacterial activity against methicillin-resistant Staphylococcus aureus ATCC 43300 assessed as inhibition of bacterial growth measured after 24 hrs by MH broth based assay.
The test system of experiment [4] is Escherichia coli. Nature of the experiment: Antibacterial activity against Escherichia coli MG1655 harbouring acrB gene assessed as inhibition of bacterial growth measured after 24 hrs by MH broth based assay.
Experiment [5] has as its system Escherichia coli. The experiment is described as follows: Antibacterial activity against Escherichia coli ATCC 25922 assessed as inhibition of bacterial growth measured after 24 hrs by MH broth based assay.
For experiment [6], the system named is Escherichia coli. The experiment is described as follows: Antibacterial activity against Escherichia coli MG1655 assessed as inhibition of bacterial growth measured after 24 hrs by MH broth based assay.
The next experiment has as its system Proteus. The experiment is described as follows: Antibacterial activity against Proteus CMCC (B) 49027 assessed as inhibition of bacterial growth measured after 24 hrs by MH broth based assay.
A further experiment concerns Bacillus subtilis. Nature of the experiment: Antibacterial activity against Bacillus subtilis ATCC 6633 assessed as inhibition of bacterial growth measured after 24 hrs by MH broth based assay.
A further experiment relates to Streptococcus pneumoniae. The experiment is described as follows: Antibacterial activity against Streptococcus pneumoniae ATCC 49619 assessed as inhibition of bacterial growth measured after 24 hrs by MH broth based assay.

Take `C=C[C@]1(C)C[C@@H](OC(=O)CSc2cc[n+](CC(=O)N3CCC(CO)CC3)cc2)[C@]2(C)[C@H](C)CC[C@]3(CCC(=O)[C@H]32)[C@@H](C)[C@@H]1O.[I-]`: the minimum inhibitory concentration (MIC) in the experiment with Staphylococcus aureus [1] worked out at 2 µg/mL; in the experiment with Enterococcus, 64 µg/mL; in experiment [2], 4 µg/mL; with Klebsiella pneumoniae, 64 µg/mL; in the experiment on Staphylococcus aureus [3] it was 2 µg/mL; with Escherichia coli [4], 16 µg/mL. Further, the MIC with Escherichia coli [5] is 64 µg/mL; in the experiment with Escherichia coli [6] it was 64 µg/mL; in the experiment on Proteus, over 64 µg/mL; in the experiment on Bacillus subtilis, 64 µg/mL; in the experiment on Streptococcus pneumoniae, 2 µg/mL.
Take `C=C[C@]1(C)C[C@@H](OC(=O)CSc2cc[n+](CC#CC)cc2)[C@]2(C)[C@H](C)CC[C@]3(CCC(=O)[C@H]32)[C@@H](C)[C@@H]1O.[I-]`: the minimum inhibitory concentration (MIC) with Staphylococcus aureus [1] came to 0.125 µg/mL; in the experiment on Enterococcus, 32 µg/mL; in experiment [2] it was 0.063 µg/mL; in the experiment with Klebsiella pneumoniae, 64 µg/mL; with Staphylococcus aureus [3] it was 0.25 µg/mL; in the experiment with Escherichia coli [4] it was 1 µg/mL. Besides, the MIC with Escherichia coli [5] is 64 µg/mL; with Escherichia coli [6], 64 µg/mL; with Proteus, over 64 µg/mL; in the experiment on Bacillus subtilis it was over 64 µg/mL; in the experiment with Streptococcus pneumoniae it was under 0.031 µg/mL.
`C=C[C@]1(C)C[C@@H](OC(=O)CSc2cc[n+](CCCCCCCC(=O)O)cc2)[C@]2(C)[C@H](C)CC[C@]3(CCC(=O)[C@H]32)[C@@H](C)[C@@H]1O.[I-]`: the MIC with Staphylococcus aureus [1] was 8 µg/mL; with Enterococcus, 64 µg/mL; in experiment [2], 4 µg/mL; in the experiment with Klebsiella pneumoniae, over 64 µg/mL; in the experiment on Staphylococcus aureus [3] it was 8 µg/mL; with Escherichia coli [4] it was 32 µg/mL. Moreover, the MIC is over 64 µg/mL in the experiment on Escherichia coli [5]; over 64 µg/mL in the experiment with Escherichia coli [6]; over 64 µg/mL in the experiment with Proteus; over 64 µg/mL with Bacillus subtilis; 2 µg/mL with Streptococcus pneumoniae.
In the case of `C=C[C@]1(C)C[C@@H](OC(=O)CSc2cc[n+](CCCCC(=O)O)cc2)[C@]2(C)[C@H](C)CC[C@]3(CCC(=O)[C@H]32)[C@@H](C)[C@@H]1O.[I-]`, the minimal inhibitory concentration (MIC) in the experiment with Staphylococcus aureus [1] is 8 µg/mL; with Enterococcus, 64 µg/mL; in experiment [2], 4 µg/mL; with Klebsiella pneumoniae, over 64 µg/mL; in the experiment on Staphylococcus aureus [3], 16 µg/mL; with Escherichia coli [4], 16 µg/mL. The MIC with Escherichia coli [5] is over 64 µg/mL; in the experiment on Escherichia coli [6], 64 µg/mL; with Proteus, over 64 µg/mL; with Bacillus subtilis it was over 64 µg/mL; in the experiment with Streptococcus pneumoniae, 2 µg/mL.
As to `C=C[C@]1(C)C[C@@H](OC(=O)CSc2cc[n+](CCCCCCCCCC(=O)O)cc2)[C@]2(C)[C@H](C)CC[C@]3(CCC(=O)[C@H]32)[C@@H](C)[C@@H]1O.[I-]`, the minimum inhibitory concentration (MIC) in the experiment with Staphylococcus aureus [1] is 4 µg/mL; with Enterococcus, 64 µg/mL; in experiment [2], 2 µg/mL; in the experiment on Klebsiella pneumoniae, over 64 µg/mL; in the experiment on Staphylococcus aureus [3], 4 µg/mL; with Escherichia coli [4], 32 µg/mL. For the same molecule, the MIC is over 64 µg/mL in the experiment on Escherichia coli [5]; over 64 µg/mL with Escherichia coli [6]; over 64 µg/mL in the experiment with Proteus; over 64 µg/mL with Bacillus subtilis; 1 µg/mL in the experiment with Streptococcus pneumoniae.
`C=C[C@]1(C)C[C@@H](OC(=O)CSc2cc[n+](CC(=O)N3CCOCC3)cc2)[C@]2(C)[C@H](C)CC[C@]3(CCC(=O)[C@H]32)[C@@H](C)[C@@H]1O.[I-]`: the MIC in the experiment with Staphylococcus aureus [1] was 16 µg/mL; in the experiment with Enterococcus, 64 µg/mL; in [2], 8 µg/mL; in the experiment with Klebsiella pneumoniae, over 64 µg/mL; in the experiment on Staphylococcus aureus [3], 16 µg/mL; in the experiment with Escherichia coli [4], 8 µg/mL. Moreover, the minimal inhibitory concentration (MIC) in the experiment with Escherichia coli [5] was over 64 µg/mL; in the experiment on Escherichia coli [6] it was 64 µg/mL; in the experiment with Proteus, over 64 µg/mL; with Bacillus subtilis it was over 64 µg/mL; with Streptococcus pneumoniae, 4 µg/mL.
Consider `C#CCC[n+]1ccc(SCC(=O)O[C@@H]2C[C@@](C)(C=C)[C@@H](O)[C@H](C)[C@]34CCC(=O)[C@H]3[C@@]2(C)[C@H](C)CC4)cc1.[I-]`, for which the minimum inhibitory concentration (MIC) was found to be 0.5 µg/mL with Staphylococcus aureus [1]; 64 µg/mL in the experiment with Enterococcus; 0.25 µg/mL in experiment [2]; 64 µg/mL with Klebsiella pneumoniae; 0.5 µg/mL in the experiment with Staphylococcus aureus [3]; 1 µg/mL in the experiment on Escherichia coli [4]. Moreover, the MIC in the experiment with Escherichia coli [5] is 64 µg/mL; with Escherichia coli [6] it was 64 µg/mL; in the experiment on Proteus it was over 64 µg/mL; in the experiment with Bacillus subtilis it was 64 µg/mL; in the experiment on Streptococcus pneumoniae, 0.125 µg/mL.
As for `C=C[C@]1(C)C[C@@H](OC(=O)CSc2cc[n+](CC(=O)N3CCS(=O)(=O)CC3)cc2)[C@]2(C)[C@H](C)CC[C@]3(CCC(=O)[C@H]32)[C@@H](C)[C@@H]1O.[I-]`, the minimal inhibitory concentration (MIC) in the experiment with Staphylococcus aureus [1] was 8 µg/mL; with Enterococcus it was 64 µg/mL; in experiment [2], 4 µg/mL; with Klebsiella pneumoniae, over 64 µg/mL; in the experiment with Staphylococcus aureus [3], 8 µg/mL; in the experiment with Escherichia coli [4], 16 µg/mL. Moreover, the minimum inhibitory concentration (MIC) in the experiment with Escherichia coli [5] was over 64 µg/mL; in the experiment on Escherichia coli [6], 32 µg/mL; with Proteus it was over 64 µg/mL; in the experiment on Bacillus subtilis, over 64 µg/mL; in the experiment with Streptococcus pneumoniae, 2 µg/mL.
